Source: patent EP1673354B1, “ARYLINDENOPYRIDINES AND ARYLINDENOPYRIMIDINES AND THEIR USE AS ADENOSINE A2A RECEPTOR ANTAGONISTS” (Ortho-McNeil Pharmaceutical, Inc., priority 2003, dated 2005)
Each block holds one compound with its values, some of them ahead of it.

How the values were obtained:
Adenosine A1 receptor = target: T1, Adenosine A1 receptor (Homo sapiens, UniProt P30542); experiment: A1 antagonist function (no method described); format: cell-based
T1 sequence (P30542 1-326): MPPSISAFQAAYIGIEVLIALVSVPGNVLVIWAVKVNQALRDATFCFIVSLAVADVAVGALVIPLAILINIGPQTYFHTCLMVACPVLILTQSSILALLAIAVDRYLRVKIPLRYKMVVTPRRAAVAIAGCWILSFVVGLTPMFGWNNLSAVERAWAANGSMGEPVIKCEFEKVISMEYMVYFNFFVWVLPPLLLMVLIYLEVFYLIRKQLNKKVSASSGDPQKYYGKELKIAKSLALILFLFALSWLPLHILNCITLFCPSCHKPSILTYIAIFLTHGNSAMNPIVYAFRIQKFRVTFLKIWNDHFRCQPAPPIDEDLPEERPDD

[1] = target: T2, human A2a adenosine receptor (Homo sapiens, UniProt P29274); experiment: Ligand binding assay for adenosine A2a receptor ([3H]CGS21680, HEK293 plasma membrane); conditions: radioligand [3H]CGS21680, HEK293 membranes, room temperature 2 hours; read-out: Ki (nM) A2a binding
T2 construct: purchased PerkinElmer RB-HA2a; host or cells: HEK293 cell plasma membrane
T2 sequence (P29274 whole entry): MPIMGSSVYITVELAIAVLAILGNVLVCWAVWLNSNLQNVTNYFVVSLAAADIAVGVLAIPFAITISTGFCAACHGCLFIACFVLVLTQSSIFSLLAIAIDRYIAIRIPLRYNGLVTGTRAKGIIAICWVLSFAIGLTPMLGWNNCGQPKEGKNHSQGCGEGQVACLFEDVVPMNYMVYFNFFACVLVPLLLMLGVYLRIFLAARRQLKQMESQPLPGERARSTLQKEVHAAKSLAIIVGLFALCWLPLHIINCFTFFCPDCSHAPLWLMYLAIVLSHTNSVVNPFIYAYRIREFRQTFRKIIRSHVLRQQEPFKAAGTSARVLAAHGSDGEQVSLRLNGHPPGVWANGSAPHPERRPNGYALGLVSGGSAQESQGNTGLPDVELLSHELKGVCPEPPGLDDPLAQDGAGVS
Experimental: Ligand Binding Assay for Adenosine A2a Receptor
Ligand binding assay of adenosine A2a receptor was performed using plasma membrane of HEK293 cells containing human A2a adenosine receptor (PerkinElmer, RB-HA2a) and radioligand [^3H]CGS21680 (PerkinElmer, NET1021). Assay was set up in 96-well polypropylene plate in total volume of 200 µl by sequentially adding 20 µL1:20 diluted membrane, 130 µLassay buffer (50 mM Tris·HCl, pH7.4 10 mM MgCl2, 1 mM EDTA) containing [^3H] […] Nonspecific binding was determined by […] NECA. Reaction was carried out at room temperature for 2 hours before filtering through 96-well GF/C filter plate pre-soaked in 50 mM Tris·HCl, pH7.4 containing 0.3% polyethylenimine. Plates were then washed 5 times with cold 50 mM Tris·HCl, pH7.4, dried and sealed at the bottom. Microscintillation fluid 30 µl was added to each well and the top sealed. Plates were counted on Packard Topcount for [^3H]. Data was analyzed in Microsoft Excel and GraphPad Prism programs.

[2] = target: T3, human adenosine A2a receptors (Homo sapiens, UniProt P29274); experiment: Adenosine A2a receptor functional assay, antagonist mode (cAMP-inducible beta-galactosidase reporter, 50 nM NECA); format: cell-based; conditions: CHO-K1 cells, read-out: Ki (nM) A2a antagonist function
T3 construct: expressed in transfected cells; host or cells: CHO-K1 cells with cAMP-inducible beta-galactosidase reporter gene
T3 sequence (P29274 whole entry): as above
Experimental: Adenosine A2a Receptor Functional Assay
CHO-K1 cells overexpressing human adenosine A2a receptors and containing cAMP-inducible beta-galactosidase reporter gene were seeded at 40-50K/well into 96-well tissue culture plates and cultured for two days. On assay day, cells were washed once with 200 µL assay medium (F-12 nutrient mixture/0.1 % BSA). For agonist assay, adenosine A2a receptor agonist NECA was subsequently added and cell incubated at 37°C, 5% CO2 for 5 hrs before stopping reaction. In the case of antagonist assay, cells were incubated with antagonists for 5 minutes at R.T. followed by addition of 50 nM NECA. Cells were then incubated at 37°C, 5% CO2 for 5 hrs before stopping experiments by washing cells with PBS twice. 50 µL 1X lysis buffer (Promega, 5X stock solution, needs to be diluted to 1X before use) was added to each well and plates frozen at -20°C. For β-galactosidase enzyme colorimetric assay, plates were thawed out at room temperature and 50 µL 2X assay buffer (Promega) added to each well. Color was allowed to develop at 37°C for 1 h or until reasonable signal appeared. Reaction was then stopped with 150 µL 1 M sodium carbonate. […] Data was analyzed in Microsoft Excel and GraphPad Prism programs.

Compound: Nc1nc(-c2ccc(F)c(F)c2)c2c(n1)-c1ccccc1C2=O [Compound 28]
- Ki (Adenosine A1 receptor): 5.86 nM
- Ki [1]: 48.9 nM
- Ki [2]: 3.53 nM

Compound: CN(C)CCN(C)Cc1cccc2c1C(=O)c1c(-c3ccccc3)nc(N)nc1-2 [Compound 49]
- Ki (Adenosine A1 receptor): 119 nM
- Ki [1]: 51.1 nM
- Ki [2]: 40.1 nM

Compound: Cc1ccc(-c2nc(N)nc3c2C(=O)c2ccccc2-3)o1 [Compound 45, 2-amino-4-(5-methyl-furan-2-yl)-indeno[1,2-d]pyrimidin-5-one]
- Ki (Adenosine A1 receptor): 0.016 nM
- Ki [1]: 4.01 nM
- Ki [2]: 0.005 nM

Compound: N#Cc1c(N)nc(-c2ccccc2)c2c1-c1ccccc1C2=O [Compound 64]
- Ki (Adenosine A1 receptor): 4.61 nM
- Ki [1]: 13.1 nM
- Ki [2]: 0.138 nM

Compound: Nc1nc(-c2ccco2)c2c(n1)-c1c(N)cccc1C2=O [Compound 21]
- Ki (Adenosine A1 receptor): 3.51 nM
- Ki [1]: 0.376 nM
- Ki [2]: 0.053 nM

Compound: N#Cc1c(N)nc(-c2ncc[nH]2)c2c1-c1ccccc1C2=O [Compound 75]
- Ki (Adenosine A1 receptor): 78.3 nM
- Ki [1]: 23.7 nM
- Ki [2]: 1.51 nM

Compound: CN(C)CCCOC(=O)c1c(N)nc(-c2ccccc2)c2c1-c1ccccc1C2=O [Compound 87]
- Ki (Adenosine A1 receptor): > 300 nM
- Ki [1]: 98.9 nM
- Ki [2]: 39.5 nM

Compound: Nc1nc(-c2ccccc2)c2c(n1)-c1ccccc1C2=O [Compound 10, 2-amino-4-phenyl-indeno[1,2-d]pyrimidin-5-one]
- Ki (Adenosine A1 receptor): 1.2 nM

Compound: CC(C)(C)OC(=O)NC1CCN(Cc2cccc3c2C(=O)c2c(-c4ccccc4)nc(N)nc2-3)CC1 [Compound 60]
- Ki [1]: 34.3 nM

Compound: Nc1nc(-c2nccs2)c2c(n1)-c1ccccc1C2=O [Compound 7]
- Ki (Adenosine A1 receptor): 6.89 nM
- Ki [2]: 0.49 nM

Other lines, results leading:

- Ki (Adenosine A1 receptor): 5.32 nM
- Ki [1]: 2.03 nM
- Ki [2]: 6.87 nM
Compound: COc1ccc(-c2nc(N)nc3c2C(=O)c2ccccc2-3)cc1 [Compound 2]

- Ki (Adenosine A1 receptor): 15.6 nM
- Ki [1]: 4.21 nM
- Ki [2]: 0.069 nM
Compound: N#Cc1c(N)nc(-c2ccoc2)c2c1-c1ccccc1C2=O [Compound 66]

- Ki (Adenosine A1 receptor): 11.6 nM
- Ki [1]: 58.4 nM
- Ki [2]: 5.5 nM
Compound: Nc1nc(-c2ccc(Cl)cc2)c2c(n1)-c1ccccc1C2=O [Compound 8]

- Ki [1]: 58.4 nM
Compound: CN(Cc1ccco1)Cc1cccc2c1C(=O)c1c(-c3ccccc3)nc(N)nc1-2 [Compound 62]

- Ki (Adenosine A1 receptor): 17.4 nM
- Ki [1]: 173 nM
- Ki [2]: 5.69 nM
Compound: Nc1nc(-c2ccco2)c2c(n1)-c1cc(Cl)c(Cl)cc1C2=O [Compound 25]

- Ki (Adenosine A1 receptor): 94.2 nM
- Ki [1]: 80.1 nM
- Ki [2]: 11.3 nM
Compound: CN1CCN(Cc2cccc3c2C(=O)c2c(-c4ccccc4)nc(N)nc2-3)CC1 [Compound 50]

- Ki [1]: 17.6 nM
- Ki [2]: 1.58 nM
Compound: CC(CN(C)C)NC(=O)c1c(N)nc(-c2ccco2)c2c1-c1ccccc1C2=O (centres unmarked) [Compound 78, 9H-indeno[2,1-c]pyridine-4-carboxylic acid, 3-aminol-furan-2-yl-9-oxo-, (2-dimethylamino-1-methyl-ethyl)-amide]

- Ki (Adenosine A1 receptor): 16.4 nM
- Ki [1]: 3.9 nM
- Ki [2]: 4.56 nM
Compound: Nc1nc(-c2ccncc2)c2c(n1)-c1ccccc1C2=O [Compound 6]

- Ki (Adenosine A1 receptor): > 1000 nM
- Ki [1]: 2260 nM
- Ki [2]: 90.2 nM
Compound: Nc1nc(-c2ccco2)c2c(c1C(=O)O)-c1ccccc1C2=O [Compound 69]

- Ki (Adenosine A1 receptor): 0.18 nM
- Ki [1]: 0.59 nM
Compound: N#Cc1c(N)nc(-c2ccco2)c2c1-c1ccccc1C2=O [Compound 63, 9H-indeno[2,1-c]pyridine-4-carbonitrile, 3-amino-1-furan-2-yl-9-oxo-]

- Ki [1]: 560 nM
Compound: CCCn1cc(-c2nc(N)nc3c2C(=O)c2ccccc2-3)ccc1=O [Compound 34]

- Ki [1]: 508 nM
Compound: CCc1nc(N)c(C#N)c2c1C(=O)c1ccccc1-2 [Compound 85]

- Ki [1]: 29.8 nM
Compound: CCN(Cc1ccncc1)Cc1cccc2c1C(=O)c1c(-c3ccccc3)nc(N)nc1-2 [Compound 61]

- Ki [1]: 6.25 nM
- Ki [2]: 0.68 nM
Compound: CN(C)CCN(C)C(=O)c1c(N)nc(-c2ccco2)c2c1-c1ccccc1C2=O [Compound 77, 9H-indeno[2,1-c]pyridine-4-carboxylic acid, 3-amino-1-furan-2-yl-9-oxo-, (2-dimethylamino-ethyl)-methyl-amide]
